Test results taken from patent EP4745118A1, “HYDROXAMIC ACID COMPOUND OR PHARMACEUTICALLY ACCEPTABLE SALT THEREOF, AND USE THEREOF AND PREPARATION METHOD THEREFOR” (priority 2023, dated 2025).
Converted amounts (≈) assume the structure as drawn. Read-outs that look alike come from different tables or passages of the source.

Key:
Serratia marcescens = assay: In vitro antibacterial activity, agar dilution method (MIC); format: cell-based; conditions: ATCC21074; Serratia marcescens ATCC 21074; agar dilution, 35°C, 18 hours; read-out: MIC
Method in brief: (§1)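 Growth inhibition on drug-containing agar read after 18 h at 35°C defined the MIC (lowest concentration, no visible growth). Inoculum of ~10^4 CFU/spot came from 0.5 McFarland suspensions diluted 10-fold.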

Proteus vulgaris = assay: as above; format: cell-based; conditions: ATCC29905; Proteus vulgaris ATCC 29905; agar dilution, 35°C, 18 hours; read-out: MIC
Method in brief: as §1

Pantoea agglomerans = assay: as above; format: cell-based; conditions: ATCC27993; Pantoea agglomerans ATCC 27993; agar dilution, 35°C, 18 hours; read-out: MIC
Method in brief: as §1

Escherichia coli = assay: as above; format: cell-based; conditions: Escherichia coli, agar dilution, 35°C, 18 hours, read-out: MIC
Method in brief: as §1

Pseudomonas aeruginosa = assay: as above; format: cell-based; conditions: Pseudomonas aeruginosa PAO1; agar dilution, 35°C, 18 hours; read-out: MIC
Method in brief: as §1

Enterobacter aerogenes = assay: as above; format: cell-based; conditions: Klebsiella aerogenes, ATCC13048; Enterobacter aerogenes ATCC 13048; agar dilution, 35°C, 18 hours; read-out: MIC
Method in brief: as §1

Proteus mirabilis = assay: as above; format: cell-based; conditions: ATCC49565; Proteus mirabilis ATCC 49565; agar dilution, 35°C, 18 hours; read-out: MIC
Method in brief: as §1

Citrobacter freundii = assay: as above; format: cell-based; conditions: ATCC43864; Citrobacter freundii ATCC 43864; agar dilution, 35°C, 18 hours; read-out: MIC
Method in brief: as §1

Klebsiella pneumoniae = assay: as above; format: cell-based; conditions: Klebsiella pneumoniae, agar dilution, 35°C, 18 hours, read-out: MIC
Method in brief: as §1

Shigella flexneri = assay: as above; format: cell-based; conditions: ATCC12022, Shigella flexneri ATCC 12022, 35°C, 18 hours, read-out: MIC
Method in brief: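 Agar dilution per CLSI in MH agar, final drug 0.03–128 µg/mL in twofold steps. About 10^4 CFU spotted per site, 35°C for 18 hours; MIC taken as lowest concentration with no growth.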

Vero cells = assay: Vero cytotoxicity (CCK-8); format: cell-based; conditions: Chlorocebus sabaeus; Vero cells, 24 hours incubation, CCK-8; read-out: IC50
Method: All liquid was transferred to a 15 mL centrifuge tube and centrifuged at 800 rpm for 5 min. […] A cell counter was used to measure cell density. Cells were inoculated at 100 µL and a density of 3 × 10^5/mL into a 96-well plate, with 6 replicates per group, and incubated at 37°C for 4 hours to allow cells to adhere to the wall. The compound was twofold continuously diluted with PBS, and 10 µL of the compound with the corresponding concentration was added to the 96-well plate, and shaken and mixed well on a shaker, and then incubated at 37°C for 24 hours. 10 µL of CCK-8 reagent was added to the 96-well plate, mixed thoroughly on a shaker, and incubated at 37°C for 2 hours. A microplate reader was used to measure the absorbance at 450 nm wavelength, and the inhibition rate of the compound on Vero cells was calculated. Table 5 Vero cytotoxicity of 4 optical isomers and control drug

Enterobacter cloacae = assay: In vitro antibacterial activity, agar dilution method (MIC); format: cell-based; conditions: Enterobacter cloacae CDC1000654 (NDM-1-producing); agar dilution, 35°C, 18 hours; read-out: MIC
Method in brief: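 CLSI agar dilution; inoculum ~10^4 CFU per spot from 0.5 McFarland suspension diluted 10-fold. Plates incubated 35°C for 18 h. MIC taken as lowest drug concentration giving no growth.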

ICR strain mice = assay: Acute toxicity in mice, single tail vein injection; format: in vivo; conditions: one week
Method: Healthy ICR strain mice weighing 20-21 g were taken for the experiment, randomly divided into groups of 3 mice per group, regardless of gender. Each compound was administered via a single tail vein injection at a volume of 20 mL/kg. Animal responses were observed immediately postadministration and monitored for one week. The number of animal deaths was recorded and mortality rates calculated.

[1] = system: Escherichia coli ATCC BAA2469 (CRE, NDM-1-producing); assay: In vivo antibacterial activity, intraperitoneal infection in mice (survival over 7 days); conditions: for Animal survival rate / Number of surviving animals: mice, one intravenous administration 1 hour post-infection, 7 days; for Number of surviving animals: 5 animals per group

**Q.** With `COC[C@@H]1C[C@@H]1C#CC#Cc1ccc(C(=O)N[C@H](C(=O)NO)C(C)(C)N)cc1` [Id, N-(S)-3-amino-1-hydroxyamino-3-methyl-1-oxobutan-2-yl-4-[[(1S,2R)-2-(methoxymethylene)cyclopropyl]but-1,3-diynyl]benzamide] as the molecule, how does the MIC (Serratia marcescens) read?
**A.** Its MIC is 0.25 µg/mL (≈ 0.652 µM).

**Q.** And the MIC (Proteus vulgaris)?
**A.** Its MIC is 0.12 µg/mL (≈ 0.313 µM).

**Q.** What about the MIC (Pantoea agglomerans) of the same molecule?
**A.** Its MIC is 1 µg/mL (≈ 2.61 µM).

**Q.** What about the MIC (Escherichia coli; 18 h, Escherichia coli 13-43 (mcr-1)) of the same molecule?
**A.** The MIC was 0.5 µg/mL (≈ 1.3 µM).

**Q.** What about the MIC (Escherichia coli; 18 h, Escherichia coli 17-R28 (CRE, NDM-1-producing)) of the same molecule?
**A.** Its MIC is 0.25 µg/mL (≈ 0.652 µM).

**Q.** What about the MIC (Escherichia coli; ATCC2469, 18 h, Escherichia coli ATCC 2469 (CRE, NDM-1-producing)) of the same molecule?
**A.** Its MIC is 0.25 µg/mL (≈ 0.652 µM).

**Q.** And the MIC (Escherichia coli; ATCC35218, 18 h, Escherichia coli ATCC 35218 (ESBLs-producing))?
**A.** Its MIC is 0.25 µg/mL (≈ 0.652 µM).

**Q.** What about the MIC (Pseudomonas aeruginosa) of the same molecule?
**A.** Its MIC is 1 µg/mL (≈ 2.61 µM).

**Q.** And the MIC (Enterobacter aerogenes)?
**A.** The MIC was 0.5 µg/mL (≈ 1.3 µM).

**Q.** And the MIC (Proteus mirabilis)?
**A.** Its MIC is 1 µg/mL (≈ 2.61 µM).

**Q.** And the MIC (Citrobacter freundii)?
**A.** Its MIC is 0.25 µg/mL (≈ 0.652 µM).

**Q.** What about the MIC (Klebsiella pneumoniae; 18 h, Klebsiella pneumoniae 09-20 (mcr-1)) of the same molecule?
**A.** The MIC was 0.5 µg/mL (≈ 1.3 µM).

**Q.** And the MIC (Klebsiella pneumoniae; 18 h, Klebsiella pneumoniae 17-R27 (CRE))?
**A.** The MIC was 0.5 µg/mL (≈ 1.3 µM).

**Q.** What about the MIC (Klebsiella pneumoniae; 18 h, Klebsiella pneumoniae 18-8 (ESBLs-producing)) of the same molecule?
**A.** The MIC was 0.5 µg/mL (≈ 1.3 µM).

**Q.** What about the MIC (Klebsiella pneumoniae; ATCC700603, 18 h, Klebsiella pneumoniae ATCC 700603 (ESBLs-producing)) of the same molecule?
**A.** The MIC was 2 µg/mL (≈ 5.22 µM).

**Q.** What about the MIC (Klebsiella pneumoniae; ATCCBAA2146, 18 h, Klebsiella pneumoniae ATCC BAA-2146 (CRE, NDM-1-producing)) of the same molecule?
**A.** Its MIC is 2 µg/mL (≈ 5.22 µM).

**Q.** And the MIC (Shigella flexneri)?
**A.** The MIC was 0.06 µg/mL (≈ 0.156 µM).

**Q.** And the IC50 (Vero cells)?
**A.** The IC50 was > 128 µM.

**Q.** What about the MIC (Enterobacter cloacae) of the same molecule?
**A.** Its MIC is 1 µg/mL (≈ 2.61 µM).

**Q.** And the Mortality rate (ICR strain mice; dose 100 mg/kg)?
**A.** Its Mortality rate is 0%.

**Q.** What about the Number of deaths (ICR strain mice; dose 100 mg/kg) of the same molecule?
**A.** The Number of deaths was 0 individuals.

**Q.** What about the Mortality rate (ICR strain mice; dose 150 mg/kg) of the same molecule?
**A.** Its Mortality rate is 67%.

**Q.** What about the Number of deaths (ICR strain mice; dose 150 mg/kg) of the same molecule?
**A.** The Number of deaths was 2 individuals.

**Q.** What about the Mortality rate (ICR strain mice; dose 200 mg/kg) of the same molecule?
**A.** Its Mortality rate is 100%.

**Q.** And the Number of deaths (ICR strain mice; dose 200 mg/kg)?
**A.** Its Number of deaths is 3 individuals.

**Q.** And the “effective dose of in vivo antibacterial activity” value ([1]; mice with intraperitoneal infection by Escherichia coli ATCC BAA2469, intravenous)?
**A.** The value was “below 1.5 mg/kg”.

**Q.** What about the Animal survival rate ([1]; dose 0.35 mg/kg) of the same molecule?
**A.** Its Animal survival rate is 0%.

**Q.** What about the “Number of surviving animals” value ([1]; dose 0.35 mg/kg) of the same molecule?
**A.** The value was 0 individuals.

**Q.** And the Animal survival rate ([1]; dose 0.7 mg/kg)?
**A.** Its Animal survival rate is 0%.

**Q.** What about the “Number of surviving animals” value ([1]; dose 0.7 mg/kg) of the same molecule?
**A.** Its value is 0 individuals.

**Q.** What about the Animal survival rate ([1]; dose 1.4 mg/kg) of the same molecule?
**A.** Its Animal survival rate is 60%.

**Q.** And the “Number of surviving animals” value ([1]; dose 1.4 mg/kg)?
**A.** The value was 3 individuals.
